The record followed here is BindingDB's records for doi:10.1021/jm00105a061 (Zambeletti Research Laboratories, 1991).

A short description of assay [1]: Compound was evaluated for its binding affinity against Opioid receptor delta 1 subtype in guinea pig brain (minus cerebellum) using [3H]DADLE as radioligand.
Assay [2] can be described thus: Compound was evaluated for its binding affinity against opioid receptor delta subtype in guinea pig brain (minus cerebellum) using [3H]-DADLE as radioligand.

Structures can show the parent of a compound that is named as a salt.

The molecule `O=C(Cc1ccc(Cl)c(Cl)c1)N1CCCCC1CN1CCCC1` (stereo not drawn) gave a Ki in assay [1] of more than 10 µM.

`O=C(Cc1ccc(O)cc1)N1CCCCC1CN1CCCC1` (stereo not drawn) came in with a Ki in assay [2] of more than 10 µM.

In turn, `CN1CCCC1C1CCCCN1C(=O)Cc1ccc(Cl)c(Cl)c1` (stereo not drawn) [(threo)2-(3,4-Dichloro-phenyl)-1-[2-(1-methyl-pyrrolidin-2-yl)-piperidin-1-yl]-ethanone(HCl)] gave a Ki in assay [2] of more than 10 µM.

Usually Ki stands for a measure of affinity in units of concentration, obtained from inhibition or displacement. The low end stands for a stronger hold on the target, the high end for a looser hold on the target.
